The target in series [1] is T1, Clostridium autoethanogenum BDH (2,3-butanediol dehydrogenase), wild type, SEQ ID NO: 14 (Clostridium autoethanogenum, UniProt A0ABM5NRF0).
T1 sequence (A0ABM5NRF0 1-351): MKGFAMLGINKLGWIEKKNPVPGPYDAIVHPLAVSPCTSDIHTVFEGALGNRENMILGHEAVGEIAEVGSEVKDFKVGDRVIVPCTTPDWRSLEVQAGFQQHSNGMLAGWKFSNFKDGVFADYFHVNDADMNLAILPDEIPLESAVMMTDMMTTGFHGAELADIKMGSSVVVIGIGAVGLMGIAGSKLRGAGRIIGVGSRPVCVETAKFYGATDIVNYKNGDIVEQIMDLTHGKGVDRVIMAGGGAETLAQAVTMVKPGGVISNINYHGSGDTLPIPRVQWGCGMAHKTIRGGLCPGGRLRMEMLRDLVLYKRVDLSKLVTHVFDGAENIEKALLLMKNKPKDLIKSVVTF
Briefly: kinetic parameters of BDH. Type of series: biochemical. The conditions noted are these: coenzyme NADH, pH 7.5, room temperature.

Series [2] deals with T2, Clostridium autoethanogenum BDH (2,3-butanediol dehydrogenase) variant BDH:S199A, SEQ ID NO: 16 (Clostridium autoethanogenum, UniProt A0ABM5NRF0, S199A).
T2 sequence (A0ABM5NRF0 1-351 S199A): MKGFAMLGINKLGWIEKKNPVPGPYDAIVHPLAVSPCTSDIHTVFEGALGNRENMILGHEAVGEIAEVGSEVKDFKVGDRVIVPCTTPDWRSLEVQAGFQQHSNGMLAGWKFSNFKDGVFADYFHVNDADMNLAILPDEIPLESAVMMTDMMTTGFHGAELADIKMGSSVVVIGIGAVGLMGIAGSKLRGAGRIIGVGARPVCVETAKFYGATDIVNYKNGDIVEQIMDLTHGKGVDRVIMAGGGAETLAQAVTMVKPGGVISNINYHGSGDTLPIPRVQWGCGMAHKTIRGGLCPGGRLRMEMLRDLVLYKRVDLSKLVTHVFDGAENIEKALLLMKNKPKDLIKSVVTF
Briefly: kinetic parameters of BDH:S199A. The conditions noted are these: for kcat / kcat/Km: pH 7.5, room temperature. The format is biochemical. How it is done:
(§1) The kinetic parameters of EtDH and EtDH:D46G were identified by reacting the EtDH and EtDH:D46G with a reaction mixture containing 100 mM glycine-NaOH buffer solution (pH 9.5), 5 mM Mg^2+, 3 mM NAD^+/NADP^+ and 0.5 to 100 mM ethanol at room temperature. The kinetic parameters of FLS and variants thereof were identified by reacting FLS and variants thereof with a reaction mixture containing 100 mM phosphate buffer solution (pH 8.0), 1 mM Mg^+, 0.1 mM TPP and 0.5 to 20 mM acetaldehyde at room temperature. The kinetic parameters of BDH and BDH:S199A were identified by reacting BDH and BDH:S199A with a reaction mixture containing 50 mM Tris-HCl buffer solution (pH 7.5), 0.2 mM NADPH, 1 mM DTT; 0.5 to 100 mM acetoin or 0.5 to 10 mM butanone at room temperature. The Km and kcat values were identified using nonlinear regression fitting of the Michaelis-Menten equation and the fitting were repeated three times.
(§2) In order to compare the catalytic efficiencies via measurement of kinetic parameters of cascade enzymes and variants thereof in accordance with the present disclosure, the following experiment was performed. Specifically, the kinetic parameters of EtDH and EtDH:D46G were identified by reacting EtDH and EtDH:D46G with a reaction mixture containing 100 mM glycine-NaOH buffer solution (pH 9.5), 5 mM Mg^2+, 3 mM NAD^+/NADP^+ and 0.5 to 100 mM ethanol at room temperature. The kinetic parameters of FLS and variants thereof were identified by reacting FLS and variants thereof with a reaction mixture containing 100 mM phosphate buffer solution (pH 8.0), 1 mM Mg^+, 0.1 mM TPP and 0.5 to 20 mM acetaldehyde at room temperature. The kinetic parameters of BDH and BDH:S199A were identified by reacting BDH and BDH:S199A with a reaction mixture containing 50 mM Tris-HCl buffer solution (pH 7.5), 0.2 mM NADPH, 1 mM DTT; and 0.5 to 100 mM acetoin or 0.5 to 10 mM butanone at room temperature. Km and kcat values as substrate affinity were identified using nonlinear regression fitting of the Michaelis-Menten equation and the fitting were repeated three times. The test results of DDH and NOX were compared with previous results [(S. Kwak, et al., Bioresource Technol., 2013, 135, 432), and (M. Kopke, et al., Appl. Environ. Microbiol., 2014, 80, 3394)].

Series [3] has as its system Lactobacillus brevis DDH (diol dehydratase), wild type, SEQ ID NO: 18. The following applies: substrate 2,3-butanediol, coenzyme B12; cited from earlier work.
The subject of series [4] is Lactobacillus rhamnosus NOX (NADH oxidase), SEQ ID NO: 2. The following applies: substrate O2, coenzyme NADH; cited from earlier work.
In series [5] the test system is Cupriavidus necator EtDH (ethanol dehydrogenase), wild type, SEQ ID NO: 4. The conditions noted are these: substrate ethanol, pH 9.5, room temperature. The protocol: as §1, §2
For series [6], the system named is Cupriavidus necator EtDH (ethanol dehydrogenase) variant EtDH:D46G, SEQ ID NO: 6. The conditions noted are these: pH 9.5, room temperature. How it is done: as §1, §2
Substrate in series [7]: CCC(C)=O
Kind of series: kinetic parameters of BDH. The format is biochemical, Clostridium autoethanogenum. The conditions noted are these: other: substrate butanone, coenzyme NADPH (0.2 mM), pH 7.5, room temperature.

Substrate in series [8]: CC(=O)C(C)O
Briefly: kinetic parameters of BDH. The conditions noted are these: other: substrate acetoin, coenzyme NADPH (0.2 mM), pH 7.5, room temperature. The format is biochemical, Clostridium autoethanogenum.

Substrate in series [9]: CCC(C)=O
Briefly: kinetic parameters of BDH:S199A. The conditions noted are these: other: substrate butanone, coenzyme NADPH (0.2 mM), pH 7.5, room temperature. The format is biochemical, Clostridium autoethanogenum.

Where [10] appears, read: substrate butanone, coenzyme NADH.
The mark [11] stands for this setting: substrate acetoin, coenzyme NADH.
Where [12] appears, read: substrate acetoin, coenzyme NADPH (0.2 mM).
Where [13] appears, read: second line of EtDH:D46G, coenzyme printed NAD^+.
Where [14] appears, read: substrate ethanol, coenzyme NAD^+ (3 mM).

The kcat is the number of substrate molecules converted per active site and unit of time at saturation. A word on the kcat/Km: it is the turnover number divided by the Michaelis constant. In general, Km refers to the substrate concentration at which the rate is half of its maximum.

Like-named read-outs stand apart in the source and are kept apart here.

Turning to `CCC(C)=O` [Butanone], in series [1] (substrate butanone), the kcat amounted to 0 s⁻¹ and the kcat/Km was found to be 0 M⁻¹ s⁻¹. For the same molecule, in [2] (setting [10]), the kcat was 0 s⁻¹ and the specificity constant (kcat/Km) was found to be 0 M⁻¹ s⁻¹. In addition, the “catalytic efficiency compared to wild-type BDH” value in series [2] (substrate butanone, coenzyme NADPH) is recorded as “increases catalytic efficiency”.

As for `C[C@H](O)[C@@H](C)O` [2,3-butanediol], in series [3], the Km was 10400 µM, the kcat was 35 s⁻¹ and the specificity constant (kcat/Km) is 3400 M⁻¹ s⁻¹.

Turning to `CC(=O)C(C)O` (stereo not shown) [Acetoin], the catalytic constant (kcat) in series [1] (substrate acetoin) came to 0 s⁻¹; in series [2] (setting [11]), 0 s⁻¹; in [2] (setting [12]), 224.3 ± 9.72 s⁻¹. For the same molecule, the kcat/Km stood at 0 M⁻¹ s⁻¹ in series [1] (substrate acetoin), 0 M⁻¹ s⁻¹ in series [2] (setting [11]) and 19310 M⁻¹ s⁻¹ in series [2] (setting [12]).

With `O=O` [O2], in series [4], the catalytic constant (kcat) is 218.7 s⁻¹ and the kcat/Km was 3.77e+07 M⁻¹ s⁻¹.

Turning to `CCO` [Ethanol], the kcat in series [5] (coenzyme NADP^+ (3 mM)) turned out to be 0 s⁻¹; in series [5] (coenzyme NAD^+ (3 mM)) it was 6.28 ± 0.11 s⁻¹; in [6] (setting [13]), 0.99 ± 0.03 s⁻¹; in [6] (setting [14]) it was 5.85 ± 0.08 s⁻¹. The specificity constant (kcat/Km) in [5] (coenzyme NADP^+ (3 mM)) was 0 M⁻¹ s⁻¹; in series [5] (coenzyme NAD^+ (3 mM)), 17090 M⁻¹ s⁻¹; in series [6] (setting [13]) it was 1650 M⁻¹ s⁻¹; in [6] (setting [14]) it was 9970 M⁻¹ s⁻¹. The Km in series [5] (coenzyme NAD^+ (3 mM)) stood at 370 ± 50 µM; in series [6] (setting [13]), 600 ± 20 µM; in [6] (setting [14]), 570 ± 30 µM.

B1: Clostridium autoethanogenum BDH (2,3-butanediol dehydrogenase), wild type, SEQ ID NO: 14 (Clostridium autoethanogenum DSM 10061) (protein)
chain: MKGFAMLGINKLGWIEKKNPVPGPYDAIVHPLAVSPCTSDIHTVFEGALGNRENMILGHEAVGEIAEVGSEVKDFKVGDRVIVPCTTPDWRSLEVQAGFQQHSNGMLAGWKFSNFKDGVFADYFHVNDADMNLAILPDEIPLESAVMMTDMMTTGFHGAELADIKMGSSVVVIGIGAVGLMGIAGSKLRGAGRIIGVGSRPVCVETAKFYGATDIVNYKNGDIVEQIMDLTHGKGVDRVIMAGGGAETLAQAVTMVKPGGVISNINYHGSGDTLPIPRVQWGCGMAHKTIRGGLCPGGRLRMEMLRDLVLYKRVDLSKLVTHVFDGAENIEKALLLMKNKPKDLIKSVVTF
In the case of B1, in series [7], the Km was determined as 1940 ± 50 µM, the kcat amounted to 29.9 ± 1.02 s⁻¹ and the specificity constant (kcat/Km) came to 15400 M⁻¹ s⁻¹. Besides, in [8], the Km worked out at 84560 ± 7960 µM.

B2: Clostridium autoethanogenum BDH (2,3-butanediol dehydrogenase) variant BDH:S199A, SEQ ID NO: 16 (Clostridium autoethanogenum DSM 10061; S199A) (protein)
chain: MKGFAMLGINKLGWIEKKNPVPGPYDAIVHPLAVSPCTSDIHTVFEGALGNRENMILGHEAVGEIAEVGSEVKDFKVGDRVIVPCTTPDWRSLEVQAGFQQHSNGMLAGWKFSNFKDGVFADYFHVNDADMNLAILPDEIPLESAVMMTDMMTTGFHGAELADIKMGSSVVVIGIGAVGLMGIAGSKLRGAGRIIGVGARPVCVETAKFYGATDIVNYKNGDIVEQIMDLTHGKGVDRVIMAGGGAETLAQAVTMVKPGGVISNINYHGSGDTLPIPRVQWGCGMAHKTIRGGLCPGGRLRMEMLRDLVLYKRVDLSKLVTHVFDGAENIEKALLLMKNKPKDLIKSVVTF
With B2, in series [9], the Km was 1080 ± 90 µM, the catalytic constant (kcat) is 40.8 ± 1.42 s⁻¹ and the kcat/Km came out at 37800 M⁻¹ s⁻¹.

Source of the values: patent US11441142B2, “FLS variant having increased activity” (KONKUK UNIVERSITY INDUSTRIAL COOPERATION CORPORATION, priority 2017, dated 2022).
